Test results reported in PubChem BioAssay AID1626 (SRMLSC, 2009).

System: M. tuberculosis H37Rv growth inhibition
Assay: M. tuberculosis H37Rv growth inhibitors, H37Rv strain (AID 1626)
Details: for IC90: measured here: IC90 against H37Rv; for CC50: measured here: Vero cell cytotoxicity

Cn1c(C(C#N)C(=O)c2ccco2)nc2ccccc21 (stereo unspecified)
IC50: 6.99 µM
IC90: > 100 µM

O=c1[nH][nH]c(-c2ccccc2O)c1C(C[N+](=O)[O-])c1ccc(Cl)cc1Cl (stereo unspecified)
IC50: 10.5 µM
IC90: 15 µM
CC50: > 40 µM

COc1ccc(NC(=O)CCc2nc(-c3ccccc3F)no2)cc1
IC90: > 100 µM

O=C(OCC(=O)c1c[nH]c2ccccc12)c1ccc([N+](=O)[O-])s1
IC50: 1.21 µM
IC90: 1.93 µM

CN(C)c1ccc(N=Nc2nc3ccccc3n2C)cc1
IC50: 0.939 µM
IC90: 2.73 µM
CC50: > 40 µM

COCCOC(=O)c1c(C)oc2ccc(OC(=O)c3ccco3)cc12
IC50: 7.1 µM
IC90: > 100 µM

COC(=O)CCn1c(C)cc(C(=O)COc2ccccc2C(N)=O)c1C
IC50: 1.57 µM
IC90: 31.1 µM
CC50: > 40 µM

CCOc1ccc(/C=C/C(=O)c2ccccc2)cc1OC
IC90: > 100 µM
CC50: > 40 µM

COc1ccc(-c2noc(CCC(=O)Nc3ccc(C)c(C)c3)n2)cc1
IC50: 22.6 µM
IC90: > 100 µM

O=C(OC(c1ccccc1)c1nccc2ccccc12)c1cc([N+](=O)[O-])cc([N+](=O)[O-])c1 (stereo unspecified)
IC50: 2.14 µM
IC90: 4.48 µM
CC50: > 40 µM

Cc1cc(C(=O)c2ccc(C(C)(C)C)cc2)c(NC(=O)CCl)s1
IC50: 19.5 µM
IC90: > 100 µM
CC50: 27.2 µM

O=C(Nc1ccc(-c2csc(Nc3cccc(C(F)(F)F)c3)n2)cc1)c1cccc(C(F)(F)F)c1
IC50: 0.954 µM
IC90: 1.53 µM
CC50: 17.6 µM

COc1ccc(NC(C)c2cc(Cl)ccc2O)cc1 (stereo unspecified)
IC90: > 100 µM

Cc1cc(N2CCC(C)CC2)nc(-n2nc(C)cc2C)n1
IC50: 3.18 µM
IC90: > 100 µM
CC50: 16.5 µM

Cc1cccc(N=C2NN=C(c3c(C)[nH]c4ccccc34)CS2)c1
IC50: 10.4 µM
IC90: 16.3 µM
CC50: 38.6 µM

Cc1ccc(OC(=O)c2sc3ncn(C)c(=O)c3c2C)cc1
IC50: 1.49 µM
IC90: 1.7 µM

Cc1cc(NC(=O)CSc2nc(C(C)C)nc3sc4c(c23)CCCC4)no1
IC50: 11.2 µM
IC90: > 100 µM
CC50: > 40 µM

CCc1cccc2c1NC(=O)C21N2CCCC2C(C(=O)c2ccc3ccccc3c2)C12C(=O)Nc1ccccc12 (stereo unspecified)
IC50: 23.8 µM
IC90: > 100 µM
CC50: > 40 µM

C=CCNc1nnc(Sc2ncccc2[N+](=O)[O-])s1
IC50: 3.96 µM
IC90: 6.01 µM

CCCCOC(=O)c1ccc(N=Nc2c(C)c(C#N)c(O)[nH]c2=O)cc1
IC50: < 0.195 µM
IC90: > 100 µM

O=c1[nH]c(-c2ccccn2)nc2ccccc12
IC50: 5.87 µM
IC90: 6.72 µM
CC50: > 40 µM

CCc1sc(N)nc1-c1ccccc1
IC90: > 100 µM

CCOC(=O)CSc1ncnc2c1cnn2-c1ccccc1
IC50: 1.37 µM
IC90: 14.6 µM

O=c1c(C=Nc2ccc(Oc3ccccc3)cc2)c[nH]n1-c1cccc(Cl)n1
IC90: > 100 µM
CC50: > 40 µM

O=C(CSc1nc2ccccc2o1)Nc1nc(-c2ccccc2)cs1
IC50: 28.1 µM
IC90: > 100 µM

O=C(/C=C/Nc1ccc(Oc2ccccc2Cl)cc1)c1ccco1
IC90: > 100 µM
CC50: > 40 µM

Cc1nn(-c2ccc([N+](=O)[O-])cc2)c2c1C(c1ccc(OC(F)F)cc1)N1C(=N2)C(=O)Nc2ccccc21 (stereo unspecified)
IC50: 4.66 µM
IC90: > 100 µM
CC50: > 40 µM

CC(=O)N1CCN(c2cc3c(cc2F)c(=O)c(C(=O)O)cn3C2CC2)CC1
IC50: 0.949 µM
IC90: 1.56 µM

Cc1cnc(C(=O)Nc2nnc(SCc3c(Cl)cccc3Cl)s2)cn1
IC50: 8.19 µM
IC90: > 100 µM
CC50: 35.5 µM

CN(C)CCCn1c(SCC(=O)Nc2nc(-c3cccc(Br)c3)cs2)nc2ccccc2c1=O
IC50: 5.61 µM
IC90: 5.96 µM
CC50: 8.6 µM

COc1cc(/C=C/c2ccc3c([N+](=O)[O-])cccc3n2)ccc1OCC(=O)O
IC50: 2.72 µM
IC90: 6.3 µM

CC(=O)c1ccc(NC(=O)COC(=O)c2c3c(nc4ccccc24)/C(=C\c2cccs2)CCC3)cc1
IC50: 0.449 µM
IC90: > 100 µM
CC50: 13.6 µM

O=C(/C=C/c1ccc(Cl)cc1)c1cccnc1
IC50: 2.01 µM
IC90: 4.7 µM
CC50: 28.5 µM

COc1c(N2CCNC(C)C2)c(F)cc2c(=O)c(C(=O)O)cn(C3CC3)c12 (stereo unspecified)
IC50: < 0.195 µM
IC90: < 0.195 µM

CN(C)CCNC=C(C(=O)Nc1ccc(Cl)cc1Cl)C(=O)Nc1ccc(Cl)cc1Cl
IC50: 2.45 µM
IC90: 3.44 µM
CC50: 18.1 µM

O=C(/C=C/c1ccnc2ccccc12)c1cccs1
IC50: 17.6 µM
IC90: 24.6 µM
CC50: > 40 µM

CC1CC1C(=O)Nc1nc(-c2ccccn2)cs1 (stereo unspecified)
IC50: 2.13 µM
IC90: 4.75 µM
CC50: 25.9 µM

CC(=O)C1=C(C)NC(SCC(=O)c2ccc(Cl)c(Cl)c2)=C(C#N)C1c1ccco1 (stereo unspecified)
IC50: 5.85 µM
IC90: 6.67 µM
CC50: > 40 µM

Clc1ccc(-n2nnnc2Sc2ncnc3sccc23)cc1
IC50: 63.4 µM
IC90: > 100 µM
CC50: 10.5 µM

Cc1cc(C)nc(-n2nc(C)cc2Nc2ccccc2)n1
IC50: 3.27 µM
IC90: 13.6 µM
CC50: > 40 µM

COc1cccc2c1nc(C)c1cc(C)oc12
IC50: 5.65 µM
IC90: > 100 µM
CC50: > 40 µM

Cc1ccc(NC(=O)NC2CCCCC2)cc1Cl
IC50: 6.04 µM
IC90: > 100 µM
CC50: > 40 µM

O=C(CSc1nc2ccccc2o1)Nc1nc(-c2ccccc2)c(-c2ccccc2)s1
IC50: 10.1 µM
IC90: > 100 µM
CC50: > 40 µM

CCOC(=O)c1ccc(NC(=O)CCC2COc3ccccc3O2)cc1 (stereo unspecified)
IC50: 3.3 µM
IC90: > 100 µM

N=c1c2c(ncn1Cc1ccco1)Oc1c(ccc3ccccc13)C2c1ccccc1 (stereo unspecified)
IC50: 3.88 µM
IC90: 5.43 µM
CC50: 8.95 µM

O=C(Nc1nnc(-c2ccccc2)o1)c1ccc(Cl)cc1
IC50: < 0.195 µM
IC90: 95.1 µM
CC50: 34.3 µM

COc1ccccc1-c1nnc(NC(=O)C2=COCCO2)o1
IC50: 8.99 µM
IC90: 15.5 µM
CC50: > 40 µM

CCCCOC(=O)c1ccc(NC(=O)CSc2nnnn2C)cc1
IC50: 19 µM
IC90: > 100 µM

COC(=O)c1cc(Sc2cccc(Cl)c2Cl)ccn1
IC50: 11.4 µM
IC90: 17 µM

Nc1ccc2c(c1)Cc1ccccc1-2
IC50: 18.3 µM
IC90: > 100 µM

CSc1cccc(NC(=O)CSc2nnc(C)s2)c1
IC50: 97.1 µM
IC90: > 100 µM

Cc1ccn2c(Nc3ccccc3)c(-c3ccccn3)nc2c1
IC50: 2.88 µM
IC90: 3.3 µM
CC50: 2.12 µM

Cc1ccccc1NC(=O)c1ccc(OCC(=O)Nc2ccccc2F)cc1
IC50: 76 µM
IC90: > 100 µM

COc1ccc(C(=O)Oc2cccc3cccnc23)cc1[N+](=O)[O-]
IC50: 4.12 µM
IC90: 4.93 µM
CC50: 39 µM

O=C(Nc1nc2ccccc2[nH]1)c1ccc(Cl)c([N+](=O)[O-])c1
IC50: 13.7 µM
IC90: > 100 µM
CC50: > 40 µM

COc1cc(CNCCc2ccccc2)cc(Cl)c1OCc1ccccc1
IC50: 8.64 µM
IC90: 11 µM
CC50: 27.8 µM

O=c1c2c(nc3c(-c4ccc(Cl)cc4)c[nH]n13)CCC2
IC50: 12.9 µM
IC90: 25.6 µM
CC50: 18.9 µM

Cc1nn(-c2ccccc2)nc1C(=O)c1c(C)[nH]n(-c2ccccc2)c1=O
IC50: 8.35 µM
IC90: 13.6 µM
CC50: 37 µM

COC(=O)c1cc(NC(=O)N2c3ccccc3Sc3ccccc32)cc(C(=O)OC)c1
CC50: > 40 µM

Cc1nc([N+](=O)[O-])c(Br)n1CC(=O)c1ccc(Cl)cc1
IC50: 16.8 µM
IC90: 23.2 µM
CC50: 30.6 µM

O=C1c2cc([N+](=O)[O-])cc3cc([N+](=O)[O-])cc(c23)C(=O)N1c1ccccn1
IC50: 2.91 µM
IC90: 3.34 µM
CC50: 35.9 µM

CCOC(=O)CSc1cccc2cccnc12
CC50: 30.7 µM

O=Cc1ccc(O)c2ncccc12
IC50: 0.378 µM
IC90: 0.549 µM
CC50: 7.88 µM

COc1ccc(CCNc2nc(N3CCCCC3)nc(N3CCCCC3)n2)cc1OC
IC50: 12.4 µM
IC90: 18.8 µM
CC50: > 40 µM

CCOC(=O)c1ccc(NC(=O)CCOc2ccc(OC)cc2)cc1
IC50: 9.49 µM
IC90: > 100 µM

CCOc1ccc(NC(C(=O)Nc2cccc(C(C)=O)c2)c2ccccc2)cc1 (stereo unspecified)
IC90: > 100 µM

CCOc1ccc(NC(=O)N(C2CCCCCC2)C2CCN(C(C)=O)CC2)cc1
IC90: > 100 µM

O=C(Nc1ccc(Oc2ccccc2)cc1)C1CCCO1 (stereo unspecified)
IC50: 34.2 µM
IC90: > 100 µM

Cc1ccc(Cc2cnc(NC(=O)C3=NCCN3)s2)cc1
IC50: 2.07 µM
IC90: 7.96 µM

COc1ccc(SN=C2C(C)=CC(=O)C=C2C)cc1
IC50: 11 µM
IC90: 12.3 µM

CNc1cc(C(F)(F)F)nc(-c2ccccn2)n1
IC50: 40.7 µM
IC90: > 100 µM

O=C(Nc1nc(-c2ccccn2)cs1)c1cc2ccccc2o1
IC50: 2.62 µM
IC90: 42.6 µM
CC50: > 40 µM

COC(=O)Cc1ccc(NC(=O)c2ccc(Br)o2)cc1
IC90: > 100 µM

Oc1ccc2ccccc2c1CNc1cnc2ccccc2c1
IC50: 1.42 µM
IC90: > 100 µM

CCCCCc1cc(=O)oc2c(C(CCN(CC)CC)c3ccc(OC)cc3)c(OC)cc(OC)c12 (stereo unspecified)
IC50: 9.08 µM
IC90: 11.7 µM
CC50: 13 µM

CCCCC(=O)c1ccc(O)cc1
IC50: 15.2 µM
IC90: > 100 µM

Cc1cc(N2C3CCC2CC(O)(c2ccc(F)cc2)C3)nc(-c2ccccc2)n1 (stereo unspecified)
IC50: 31.6 µM
IC90: > 100 µM
CC50: > 40 µM

O=C(Nc1cccnc1)c1cc2cc(Br)ccc2oc1=O
IC90: > 100 µM

COc1ccc(C(C)(C)C)cc1NC(=O)COC(=O)c1cc(SC)ccc1Cl
IC50: 54.6 µM
IC90: > 100 µM

O=C1C2C3C=CC(C3)C2C(=O)N1c1ccc(-c2nc3ccccc3c(=O)o2)cc1 (stereo unspecified)
IC50: 9.33 µM
IC90: 23.1 µM

COc1ccc(CCNC(=O)c2c(N)n(CCN3CCOCC3)c3nc4ccccc4nc23)cc1
IC50: 11.3 µM
IC90: 19.1 µM
CC50: > 40 µM

CCC1CCCCN1C(=O)COC(=O)c1cc(Br)ccc1Cl (stereo unspecified)
IC50: 15.2 µM
IC90: > 100 µM

COc1ccc(N2CCN(C(=O)CN3CCN(c4nc(-c5ccc(F)cc5)cs4)CC3)CC2)cc1
CC50: > 40 µM

COc1ccc(C2/C=C\CN(C(=O)Nc3ccc(C(F)(F)F)cc3)CC(=O)N2Cc2ccc(F)cc2)cc1 (stereo unspecified)
IC50: 5.74 µM
IC90: 6.73 µM
CC50: 16.7 µM
